“Also recorded” adds a separate entry of the source.
Key:
Lck-IL4 transgenic mice = test: Lck-IL4 transgenic mouse model of osteoporosis: whole body and femoral bone parameters; assay type: in vivo; settings: Lck-IL4 mice fed Compound 2 150 mg/kg bid in food 84 days vs untreated Lck-IL4 controls
Procedure: The ability of 15-lipoxygenase inhibitors to promote bone formation in vivo was assessed by measuring the ability of the inhibitors to improve bone parameters in a mouse model of osteoporosis. Constitutive expression of an Interleukin-4 transgene from the Lck gene promoter (Lck-IL4) in C57BL/6 mice results in a severe bone phenotype mimicking osteoporosis.
Mice were permitted access to one-half the daily food intake twice daily at approximately 12 h intervals and diet intake was monitored daily. Water was available ad libitum. The control groups received the same diet without Compound 2. All groups consumed food equally well over the course of the experiment. […]
Bone mineral measurements were determined by dual energy X-ray absorptiometry (DEXA). […]
The cross-sectional geometric parameters of the mid-diaphysis of the femora were determined using a portable x-ray microtomograph (Model 1074, Skyscan, Antwerp, Belgium). Scans were taken at […] intervals, and a slice located at the midpoint of the femur was analyzed for total area (FCSA), cortical area (Ct Ar) and medullary canal area (Ma Ar). In addition, using the pixels contained in the cortical region of the digital image, the radius from the centroid of the cross-section to the outer fiber in the anterior-posterior plane, the areal moment of inertia (Ixx) in the plane of bending and the average cortical thickness (Ct Th) were calculated. […]

[1] = system: human mesenchymal stem cells (hMSC); test: Alkaline phosphatase activity in hMSC cultures induced to differentiate into osteoblasts; assay type: cell-based; settings: for normalized activity of alkaline phosphatase: hMSC, second experimental set, inhibitors added on Day 1 or Day 11, FIG. 6; for alkaline phosphatase activity: hMSC cultured 9 days with 5-LO inhibitors, relative to DMSO, FIG. 8
Procedure: (§1) In order to determine the ability of inhibitors of 15-lipoxygenase to stimulate bone formation and bone accretion, the ability of the 15-LO inhibitors to promote measures of differentiation of stem cells into bone forming cells (osteoblasts) was tested in vitro.
(§2) Four to eight independent replicate cultures were prepared at each dose level. At the end of the experiments, the cultured cells were harvested by scraping the wells into the appropriate medium for further analysis of either alkaline phosphatase (Sigma kit#104-LL), or cellular calcium (Sigma kit#587-M). Cultures harvested for alkaline phosphatase assessment were harvested by scraping the cells and resuspending into 250 μL Tris buffered 0.1% Triton X-100, and then assayed either fresh or following freeze-thaw. Separate cultures to be assayed for total calcium content were scraped and resuspended into 250 μL 0.5M HCL. Results of these assays were normalized to total cellular DNA, thereby normalizing for differences in cell proliferation. At the same times that cultures were harvested for alkaline phosphatase and calcium, separate replicate cultures were harvested by scraping the cells and resuspending them in 250 μL Hank's Balanced Salt Solution, and cellular number assessed by DNA (DNeasy Tissue Kit, Qiagen cat#69506).
[…] Three different sets of experiments were performed.
The plates were cultured for 14 days. The DNA-normalized activity of alkaline phosphatase is plotted in FIG. 5.
(§3) Inhibitors were added either on Day 1 or Day 11. […] The normalized activity of alkaline phosphatase and calcium content is plotted in FIGS. 6 and 7, respectively.
(§4) As a control for the specificity of 15-LO inhibition for the induction of osteoblast differentiation of stem cells in vitro, the third set of experiments studied eight replicates of standard lipoxygenase inhibitors recognized as more specific to the 5-LO enzyme, rather than the 15-LO enzyme. Zileuton (1,10, 50 uM, prepared at Roche as) Compound 5, AA-861 (1, 10, 50 uM, Sigma #A371 1) and Rev-5901 (15 uM, Sigma #R5523) were prepared fresh every 2-3 days and tested in the human osteoblast precursor cells.

[2] = system: human mesenchymal stem cells (hMSC); test: Total calcium content of hMSC cultures induced to differentiate into osteoblasts; assay type: cell-based; settings: for calcium content: hMSC, second experimental set, inhibitors added on Day 1 or Day 11, FIG. 7; for culture calcium deposition (total calcium content): hMSC cultured 16 days with 5-LO inhibitors, relative to DMSO or 1,25-Vitamin D3, FIG. 9
Procedure: as §1, §2, §3, §4

15-LO = 15-LO (UniProt P12530); assay type: biochemical
Sequence of 15-LO (P12530 whole entry): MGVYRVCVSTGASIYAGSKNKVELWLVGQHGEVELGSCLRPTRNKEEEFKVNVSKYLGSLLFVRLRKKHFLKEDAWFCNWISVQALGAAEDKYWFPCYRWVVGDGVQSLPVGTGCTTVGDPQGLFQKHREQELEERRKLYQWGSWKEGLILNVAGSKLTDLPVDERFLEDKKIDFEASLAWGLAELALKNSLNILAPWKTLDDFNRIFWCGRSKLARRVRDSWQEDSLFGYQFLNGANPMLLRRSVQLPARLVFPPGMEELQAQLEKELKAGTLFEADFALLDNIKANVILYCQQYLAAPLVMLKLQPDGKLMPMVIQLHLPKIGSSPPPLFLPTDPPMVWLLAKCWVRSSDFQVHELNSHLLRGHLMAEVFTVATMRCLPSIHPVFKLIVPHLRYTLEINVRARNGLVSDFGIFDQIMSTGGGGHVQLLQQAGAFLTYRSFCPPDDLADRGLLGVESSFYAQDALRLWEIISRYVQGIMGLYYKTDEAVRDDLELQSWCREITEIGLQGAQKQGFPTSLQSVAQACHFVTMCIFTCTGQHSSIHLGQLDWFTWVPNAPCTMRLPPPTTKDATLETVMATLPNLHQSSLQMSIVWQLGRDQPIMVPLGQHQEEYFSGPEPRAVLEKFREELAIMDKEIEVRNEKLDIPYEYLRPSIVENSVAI
Procedure: IC50's may be determined by standard methods. One particular method is a colorimetric assay in which the putative inhibitor is pre-incubated with the 15-LO enzyme for about 10 minutes followed by addition of linoleic acid substrate for an additional 10 minutes. The product, 13-HPODE, is quantitated by coupling the reduction of the hydroperoxylated lipid to the oxidation on N-benzoyl-leucomethylene blue in the presence of hemin at pH 5. The absorbance of the oxidized methylene blue is directly proportional to the amount of 13-HPODE formed by the 15-LO, and can be measured in the presence and absence of inhibitor.

[3] = system: ovariectomized (Ovx) rats; test: Estrogen deficiency Rat OVX osteopenia assay, BMD; assay type: in vivo
Procedure: In order to determine the ability of inhibitors of 15-lipoxygenase to stimulate bone formation and bone accretion, [[[5-(5,6-difluoro-1H-indol-2-yl)-2-methoxyphenyl]amino]sulfonyl]-carbamic acid-isobutyl ester, Compound 6, was prepared as described in WO0196298 ) and tested in the standard estrogen deficiency Rat OVX osteopenia assay.
Three month old rats are ovariectomized (Ovx) and administered 1 mg/kg/day Compound 6 or 0.1 ug/kg/day 1,25-dihydroxy vitamin D3 (positive control, abbreviated Vit. D in Table) by oral gavage once a day starting at 2 weeks post-ovariectomy and continuing for 7 weeks. The dose was increased to 2 mg/kg/day and continued until 11 weeks. Control groups, both sham (rats that were not ovariectomized) and Ovx, received vehicle only. The bone mineral density of the spine and right hip was determined by using the High Resolution Software package on a QDR-4500 Bone Densitometer^□ (Hologic, Walthan, Mass.). The animals were scanned by placing them in a supine position such that the right femur was perpendicular to the main body and the tibia was perpendicular to the femur. […]

[4] = 3 weeks treatment, 1 mg/kg/day oral gavage
[5] = 7 weeks treatment, 1 mg/kg/day oral gavage
[6] = 11 weeks treatment, dose increased to 2 mg/kg/day after 7 weeks, oral gavage
[7] = 7 weeks treatment, 0.1 ug/kg/day oral gavage (positive control)

c1ccc2c(c1)SCc1c-2[nH]c2ccccc12 [Compound 2, 6,11-dihydro-5-thia-11-aza-benzo[a]fluorene]
Femoral Marrow area (Lck-IL4 transgenic mice): −7%
Femoral Total area (Lck-IL4 transgenic mice): −4%
normalized activity of alkaline phosphatase [1]: most effective when added on Day 1
calcium content [2]: most effective when added on Day 1

COc1ccc(C(=O)Nc2ccc(Cl)c(Cl)c2)cc1N [Compound 3, 3-amino-N-(3,4-dichlorophenyl)-4-methoxybenzamide]
IC50 (15-LO): ~10 nM
normalized activity of alkaline phosphatase [1]: most effective when added on Day 11
calcium content [2]: most effective when added on Day 11

CCCCCCC#Cc1ccccc1/C=C/C(=O)O [Compound 4, trans-3-(2-oct-1-ynyl-phenyl)-acrylic acid]
IC50 (15-LO): 1000 to 3000 nM

CC(c1cc2ccccc2s1)N(O)C(N)=O (stereo not drawn) [Compound 5, Zilueton]
IC50 for 15-LO (15-LO; result in words): negative control
alkaline phosphatase activity ([1]; listed as Zileuton): lack ability to induce; also recorded: lack of a response
culture calcium deposition (total calcium content) ([2]; listed as Zileuton): lack ability to induce; also recorded: lack of a response

COc1ccc(-c2cc3cc(F)c(F)cc3[nH]2)cc1NS(=O)(=O)NC(=O)OCC(C)C [Compound 6, [[[5-(5,6-difluoro-1H-indol-2-yl)-2-methoxyphenyl]amino]sulfonyl]-carbamic acid-isobutyl ester]
BMD Lumbar Spine L2-L4 [3, 4]: 0.2347 (0.055) gm mineral/cm^2
BMD Lumbar Spine L5 [3, 4]: 0.2480 gm mineral/cm^2
BMD Proximal Femur [3, 4]: 0.2838 (0.103) gm mineral/cm^2
BMD Lumbar Spine L2-L4 [3, 5]: 0.2474 (0.019) gm mineral/cm^2
BMD Lumbar Spine L5 [3, 5]: 0.2549 gm mineral/cm^2
BMD Proximal Femur [3, 5]: 0.2932 (0.033) gm mineral/cm^2
BMD Lumbar Spine L2-L4 [3, 6]: 0.2507 (0.009) gm mineral/cm^2
BMD Lumbar Spine L5 [3, 6]: 0.2626 gm mineral/cm^2
BMD Proximal Femur [3, 6]: 0.2986 (0.039) gm mineral/cm^2
BMD in the spine ([3]; at >3 weeks, result in words): increased BMD
BMD in the proximal femur ([3]; at >7 weeks, result in words): increased BMD
IC50 (15-LO): 25 to 83 nM

CCCCCC(O)c1cccc(OCc2ccc3ccccc3n2)c1 (stereo not drawn) [Rev-5901]
alkaline phosphatase activity [1]: lack ability to induce; also recorded: lack of a response
culture calcium deposition (total calcium content) [2]: lack ability to induce; also recorded: lack of a response

C=C1/C(=C\C=C2/CCC[C@]3(C)[C@@H]([C@H](C)CCCC(C)(C)O)CC[C@@H]23)C[C@@H](O)C[C@@H]1O [Vit D, 1,25-dihydroxy vitamin D3, reference compound]
BMD Lumbar Spine L2-L4 [3, 7]: 0.2628 (0.023) gm mineral/cm^2
BMD Lumbar Spine L5 [3, 7]: 0.2742 gm mineral/cm^2

Reference: US20030175680A1, “Methods of treating and preventing bone loss” (priority 2002, published 2003)
